Results as given in paper PMC8922281, “Synthesis and In Vitro Biological Evaluation of Quinolinyl Pyrimidines Targeting Type II NADH-Dehydrogenase (NDH-2)” (ACS Infectious Diseases, 2022).
Values after ≈ are worked out from the molar mass of the structure shown. Values joined by “and” are separate entries in the source; they are usually repeats but may differ in a detail not shown here. Identical values can stand only once.

Assays:
[1] = system: E. coli (D22, lpxC mutant, drug-hypersensitive); experiment: microbe, parasite or virus in culture; assay type: cell-based; conditions: Escherichia coli, read-out: MIC Ec D22
[2] = system: E. coli (ΔtolC efflux-defective mutant, isogenic to ATCC 25922); experiment: microbe, parasite or virus in culture; assay type: cell-based; conditions: Escherichia coli, ATCC25922, read-out: MIC Ec ΔtolC
[3] = system: M. tuberculosis strain H37Rv (ATCC 25618); experiment: MIC on M. tuberculosis by resazurin reduction microplate assay (REMA); assay type: cell-based; conditions: Mycobacterium tuberculosis, M. tuberculosis H37Rv, read-out: MIC Mtb
[4] = system: P. aeruginosa (PAO750 efflux-defective mutant, isogenic to PAO1); experiment: microbe, parasite or virus in culture; assay type: cell-based; conditions: Pseudomonas aeruginosa, PAO1, read-out: MIC Pa efflux
[5] = system: K. pneumonia (ATCC 13833, wild-type); experiment: MIC on ESKAPE pathogens, K. pneumoniae
[6] = Cytotoxicity on the MRC-5 cell line (resazurin); assay type: cell-based; conditions: human, MRC-5SV2 cells, MRC-5SV2, 3 days
Experimental: MRC-5SV2 cells were cultured in Earl’s MEM + 5% FCSi. Assays were performed in 96-well microtiter plates, each well containing about 10^4 cells/well. After 3 days of incubation with or without compounds, cell viability was assessed fluorimetrically after the addition of resazurin (λex 550 nm, λem 590 nm). The results were expressed as % reduction in cell growth/viability compared to untreated control wells and CC50 was determined. Testing/retesting strategy was as described above for HepG2 cells.

[7] = system: A. baumannii (ATCC 19606, wild-type); experiment: MIC on ESKAPE pathogens, A. baumannii; assay type: cell-based; conditions: Acinetobacter baumannii, ATCC19606; A. baumannii ATCC 19606, wild-type; read-out: MIC Ab WT
[8] = system: S. aureus (ATCC 29213, wild-type); experiment: MIC on ESKAPE pathogens, S. aureus; assay type: cell-based; conditions: Staphylococcus aureus, ATCC29213
[9] = target: MsNDH-2 (Mycolicibacterium smegmatis, UniProt A0QYD6); experiment: Inhibition of MsNDH-2 (NADH oxidation with menadione, absorbance at 340 nm); assay type: biochemical, M. smegmatis
Sequence of MsNDH-2 (A0QYD6 1-457): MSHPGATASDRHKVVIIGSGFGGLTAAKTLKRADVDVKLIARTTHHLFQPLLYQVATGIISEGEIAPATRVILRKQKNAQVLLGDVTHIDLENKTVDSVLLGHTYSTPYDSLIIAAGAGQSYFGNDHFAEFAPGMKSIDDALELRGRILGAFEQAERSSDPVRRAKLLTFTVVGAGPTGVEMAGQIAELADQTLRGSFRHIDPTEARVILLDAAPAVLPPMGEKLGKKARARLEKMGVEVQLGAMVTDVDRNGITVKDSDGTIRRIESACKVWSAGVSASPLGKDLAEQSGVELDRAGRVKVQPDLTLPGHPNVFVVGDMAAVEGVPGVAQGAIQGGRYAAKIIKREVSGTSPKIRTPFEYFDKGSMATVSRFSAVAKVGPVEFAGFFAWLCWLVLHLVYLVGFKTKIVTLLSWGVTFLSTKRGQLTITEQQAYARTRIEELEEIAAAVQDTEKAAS

[10] = system: P. aeruginosa (PAO1, wild-type); experiment: MIC on ESKAPE pathogens, P. aeruginosa wild-type; assay type: cell-based; conditions: Pseudomonas aeruginosa, PAO1, P. aeruginosa PAO1, wild-type; read-out: MIC Pa WT
[11] = system: E. coli (ATCC 25922, wild-type); experiment: MIC on ESKAPE pathogens, E. coli wild-type; assay type: cell-based; conditions: Escherichia coli, ATCC25922; E. coli ATCC 25922, wild-type; read-out: MIC Ec WT
[12] = target: MtNDH-2 (Mycobacterium tuberculosis, UniProt P95160); experiment: biochemical; parameters: species or system M. tuberculosis; conditions: MtNDH-2 IC50
Sequence of MtNDH-2 (P95160 2-463, added parts left off): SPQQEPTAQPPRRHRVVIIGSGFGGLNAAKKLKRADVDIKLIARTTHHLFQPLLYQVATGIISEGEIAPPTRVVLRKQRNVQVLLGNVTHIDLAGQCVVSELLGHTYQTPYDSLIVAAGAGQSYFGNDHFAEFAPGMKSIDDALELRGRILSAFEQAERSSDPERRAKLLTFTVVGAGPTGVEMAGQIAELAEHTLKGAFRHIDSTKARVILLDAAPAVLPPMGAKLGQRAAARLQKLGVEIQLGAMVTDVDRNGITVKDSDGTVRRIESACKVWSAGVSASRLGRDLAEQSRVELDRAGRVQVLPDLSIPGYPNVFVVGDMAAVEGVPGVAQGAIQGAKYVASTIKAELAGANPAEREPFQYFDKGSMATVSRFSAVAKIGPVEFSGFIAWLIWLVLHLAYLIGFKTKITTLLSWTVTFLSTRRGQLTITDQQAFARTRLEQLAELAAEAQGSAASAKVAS

[13] = 95% confidence interval in parentheses, 50 nM enzyme, 50 μM menadione, >100: no significant inhibition at 100 μM
[14] = same IC50 given in μg/mL to assist comparisons with MICs

SMILES: CC(C)(C)OC(=O)NC1CCN(c2cc(Nc3ccc4nc(-c5ccc(F)cc5)cc(N)c4c3)nc(N)n2)CC1 [Compound 8i, tert-Butyl (1-(2-Amino-6-((4-amino-2-(4-fluorophenyl)quinolin-6-yl)amino)pyrimidin-4-yl)piperidin-4-yl)carbamate]
- MIC [1]: 4 µg/mL (≈ 7.34 µM)
- MIC [2]: 8 µg/mL (≈ 14.7 µM)
- MIC [3]: 6.1 µg/mL (≈ 11.2 µM)
- MIC [4]: 32 µg/mL (≈ 58.8 µM)
- MIC Kp WT [5]: 64 µg/mL (≈ 118 µM)
- IC50 at 3 days ([6]; resazurin): 1.3 µM
- IC50 at 3 days ([6]; value in parentheses): 0.7 µg/mL
- MIC [7]: 8 µg/mL (≈ 14.7 µM)
- MIC [8]: 1 µg/mL (≈ 1.84 µM)
- IC50 [9, 13]: 0.95 µM
- IC50 [9, 14]: 0.918 µM
- MIC [10]: 64 µg/mL (≈ 118 µM)
- MIC [11]: 64 µg/mL (≈ 118 µM)
- IC50 [12]: 0.441 µM

SMILES: CN(C)c1cc(Nc2ccc3nc(-c4ccc(F)cc4)cc(N)c3c2)nc(N)n1 [Compound 8k, N^4-(4-Amino-2-(4-fluorophenyl)quinolin-6-yl)-N^6,N^6-dimethylpyrimidine-2,4,6-triamine]
- MIC [1]: 8 µg/mL (≈ 20.5 µM)
- MIC [2]: 2 µg/mL (≈ 5.14 µM)
- MIC [3]: 5.9 µg/mL (≈ 15.2 µM)
- MIC [4]: 4 µg/mL (≈ 10.3 µM)
- MIC Kp WT [5]: 64 µg/mL (≈ 164 µM)
- IC50 at 3 days ([6]; resazurin): 1.8 µM
- IC50 at 3 days ([6]; value in parentheses): 0.7 µg/mL
- MIC [7]: 8 µg/mL (≈ 20.5 µM)
- MIC [8]: 8 µg/mL (≈ 20.5 µM)
- IC50 [9, 13]: 2.7 µM
- IC50 [9, 14]: 2.82 µM
- MIC [10]: > 64 µg/mL
- MIC [11]: 32 µg/mL (≈ 82.2 µM)
- IC50 [12]: 1.3 µM and 1.31 µM

SMILES: CN(CCO)c1cc(Nc2ccc3nc(-c4ccc(F)cc4)cc(N)c3c2)nc(N)n1 [Compound 8l, 2-((2-Amino-6-((4-amino-2-(4-fluorophenyl)quinolin-6-yl)amino)pyrimidin-4-yl)(methyl)amino)ethan-1-ol]
- MIC [1]: 8 µg/mL (≈ 19.1 µM)
- MIC [2]: 8 µg/mL (≈ 19.1 µM)
- MIC [3]: 9.8 µg/mL (≈ 23.4 µM)
- MIC [4]: > 64 µg/mL
- MIC Kp WT [5]: >64 µg/mL
- IC50 at 3 days ([6]; resazurin): 7.8 µM
- IC50 at 3 days ([6]; value in parentheses): 3.3 µg/mL
- MIC [7]: > 64 µg/mL
- MIC [8]: 32 µg/mL (≈ 76.3 µM)
- IC50 [9, 13]: 16 µM
- IC50 [9, 14]: 16.2 µM
- MIC [10]: > 64 µg/mL
- MIC [11]: 16 µg/mL (≈ 38.1 µM)
- IC50 [12]: 11 µM and 11.4 µM

SMILES: CNCCN(C)c1cc(Nc2ccc3nc(-c4ccc(F)cc4)cc(N)c3c2)nc(N)n1 [Compound 8m, N^4-(4-Amino-2-(4-fluorophenyl)quinolin-6-yl)-N^6-methyl-N^6-(2-(methylamino)ethyl)pyrimidine-2,4,6-triamine]
- MIC [1]: 32 µg/mL (≈ 74 µM)
- MIC [2]: 32 µg/mL (≈ 74 µM)
- MIC [3]: 21.6 µg/mL (≈ 49.9 µM)
- MIC [4]: 16 µg/mL (≈ 37 µM)
- MIC Kp WT [5]: >64 µg/mL
- IC50 at 3 days ([6]; resazurin): 7.6 µM
- IC50 at 3 days ([6]; value in parentheses): 3.3 µg/mL
- MIC [7]: > 64 µg/mL
- MIC [8]: > 64 µg/mL
- IC50 [9, 13]: 19 µM
- IC50 [9, 14]: 18.5 µM
- MIC [10]: 32 µg/mL (≈ 74 µM)
- MIC [11]: > 64 µg/mL
- IC50 [12]: 16 µM

SMILES: Nc1nc(Nc2ccc3nc(-c4ccc(F)cc4)cc(N)c3c2)cc(N2CCC(CO)CC2)n1 [Compound 8n, (1-(2-Amino-6-((4-amino-2-(4-fluorophenyl)quinolin-6-yl)amino)pyrimidin-4-yl)piperidin-4-yl)methanol]
- MIC [1]: 32 µg/mL (≈ 69.6 µM)
- MIC [2]: 16 µg/mL (≈ 34.8 µM)
- MIC [3]: 17.7 µg/mL (≈ 38.5 µM)
- MIC [4]: 64 µg/mL (≈ 139 µM)
- MIC Kp WT [5]: >64 µg/mL
- IC50 at 3 days ([6]; resazurin): 3.7 µM
- IC50 at 3 days ([6]; value in parentheses): 1.7 µg/mL
- MIC [7]: 64 µg/mL (≈ 139 µM)
- MIC [8]: 32 µg/mL (≈ 69.6 µM)
- MIC [10]: > 64 µg/mL
- MIC [11]: 64 µg/mL (≈ 139 µM)
- IC50 [12]: 4.1 µM and 4.13 µM

SMILES: CCOc1cc(Nc2ccc3nc(-c4ccc(F)cc4)cc(N)c3c2)nc(N)n1 [Compound 9a, N^6-(2-Amino-6-ethoxypyrimidin-4-yl)-2-(4-fluorophenyl)quinoline-4,6-diamine]
- MIC [1]: 4 µg/mL (≈ 10.2 µM)
- MIC [2]: 2 µg/mL (≈ 5.12 µM)
- MIC [3]: 3.4 µg/mL (≈ 8.71 µM)
- MIC [4]: 16 µg/mL (≈ 41 µM)
- MIC Kp WT [5]: 64 µg/mL (≈ 164 µM)
- IC50 at 3 days ([6]; resazurin): 1.6 µM
- IC50 at 3 days ([6]; value in parentheses): 0.6 µg/mL
- MIC [7]: 2 µg/mL (≈ 5.12 µM)
- MIC [8]: 2 µg/mL (≈ 5.12 µM)
- IC50 [9, 13]: 5.3 µM
- IC50 [9, 14]: 5.38 µM
- MIC [10]: > 128 µg/mL
- MIC [11]: 64 µg/mL (≈ 164 µM)
- IC50 [12]: 0.9 µM and 0.896 µM

SMILES: Nc1nc(Nc2ccc3nc(-c4ccc(F)cc4)cc(N)c3c2)cc(OCCO)n1 [Compound 9b, 2-((2-Amino-6-((4-amino-2-(4-fluorophenyl)quinolin-6-yl)amino)pyrimidin-4-yl)oxy)ethan-1-ol]
- MIC [1]: 16 µg/mL (≈ 39.4 µM)
- MIC [2]: 8 µg/mL (≈ 19.7 µM)
- MIC [3]: 9.8 µg/mL (≈ 24.1 µM)
- MIC [4]: 32 µg/mL (≈ 78.7 µM)
- MIC Kp WT [5]: 32 µg/mL (≈ 78.7 µM)
- IC50 at 3 days ([6]; resazurin): 8 µM
- IC50 at 3 days ([6]; value in parentheses): 3.3 µg/mL
- MIC [7]: 32 µg/mL (≈ 78.7 µM)
- MIC [8]: 16 µg/mL (≈ 39.4 µM)
- IC50 [9, 13]: 13 µM
- IC50 [9, 14]: 12.8 µM
- MIC [10]: ≥ 64 µg/mL
- MIC [11]: 32 µg/mL (≈ 78.7 µM)
- IC50 [12]: 2.5 µM and 2.46 µM

SMILES: CN1CCCC(COc2cc(Nc3ccc4nc(-c5ccc(F)cc5)cc(N)c4c3)nc(N)n2)C1 (centres unmarked) [Compound 9c, N^6-(2-Amino-6-((1-methylpiperidin-3-yl)methoxy)pyrimidin-4-yl)-2-(4-fluorophenyl)quinoline-4,6-diamine]
- MIC [1]: 32 µg/mL (≈ 67.6 µM)
- MIC [2]: 16 µg/mL (≈ 33.8 µM)
- MIC [3]: 37.5 µg/mL (≈ 79.2 µM)
- MIC [4]: 16 µg/mL (≈ 33.8 µM)
- MIC Kp WT [5]: >64 µg/mL
- MIC [7]: > 64 µg/mL
- MIC [8]: 64 µg/mL (≈ 135 µM)
- IC50 [9, 13]: 14 µM
- IC50 [9, 14]: 13.7 µM
- MIC [10]: > 64 µg/mL
- MIC [11]: 64 µg/mL (≈ 135 µM)
- IC50 [12]: 3.3 µM and 3.38 µM

SMILES: Nc1nc(Nc2ccc3nc(-c4ccc(F)cc4)cc(N)c3c2)cc(=O)[nH]1 [Compound 12, 2-Amino-6-((4-amino-2-(4-fluorophenyl)quinolin-6-yl)amino)pyrimidin-4(3H)-one]
- MIC [1]: 16 µg/mL (≈ 44.2 µM)
- MIC [2]: 16 µg/mL (≈ 44.2 µM)
- MIC [3]: 9.2 µg/mL (≈ 25.4 µM)
- MIC [4]: 32 µg/mL (≈ 88.3 µM)
- MIC Kp WT [5]: 32 µg/mL (≈ 88.3 µM)
- MIC [7]: 32 µg/mL (≈ 88.3 µM)
- MIC [8]: 32 µg/mL (≈ 88.3 µM)
- IC50 [9, 13]: > 20 µM
- IC50 [9, 14]: > 19.9 µM
- MIC [10]: > 64 µg/mL
- MIC [11]: 32 µg/mL (≈ 88.3 µM)
- IC50 [12]: 1.5 µM and 1.49 µM

SMILES: Nc1cc(-c2ccc(F)cc2)nc2ccc(Nc3cc(Cl)ncn3)cc12 [Compound 14, N^6-(6-Chloropyrimidin-4-yl)-2-(4-fluorophenyl)quinoline-4,6-diamine]
- MIC [1]: 64 µg/mL (≈ 175 µM)
- MIC [2]: > 64 µg/mL
- MIC [3]: 4.8 µg/mL (≈ 13.1 µM)
- MIC [4]: > 64 µg/mL
- MIC Kp WT [5]: >64 µg/mL
- MIC [7]: > 64 µg/mL
- MIC [8]: 64 µg/mL (≈ 175 µM)
- IC50 [9, 13]: 5.1 µM
- IC50 [9, 14]: 5.19 µM
- MIC [10]: > 64 µg/mL
- MIC [11]: > 64 µg/mL
- IC50 [12]: 1.5 µM

SMILES: Nc1cc(-c2ccc(F)cc2)nc2ccc(Nc3cc(N4CCNCC4)ncn3)cc12 [Compound 15, 2-(4-Fluorophenyl)-N^6-(6-(piperazin-1-yl)pyrimidin-4-yl)quinoline-4,6-diamine]
- MIC [1]: 16 µg/mL (≈ 38.5 µM)
- MIC [2]: 16 µg/mL (≈ 38.5 µM)
- MIC [3]: > 42 µg/mL
- MIC [4]: 8 µg/mL (≈ 19.3 µM)
- MIC Kp WT [5]: >64 µg/mL
- IC50 at 3 days ([6]; resazurin): 1.7 µM
- IC50 at 3 days ([6]; value in parentheses): 0.7 µg/mL
- MIC [7]: > 64 µg/mL
- MIC [8]: > 64 µg/mL
- IC50 [9, 13]: 23 µM
- IC50 [9, 14]: 20.9 µM
- MIC [10]: 32 µg/mL (≈ 77 µM)
- MIC [11]: > 64 µg/mL
- IC50 [12]: 6 µM and 6.02 µM
